# Assays:
# [1] = system: Persian speedwell (VERPE); test: Test 2 on herbicidal effects against weeds and phytotoxicity by upland soil treatment; type: in vivo; details: 28th day
# From the text: (§1) In a plastic pot of 14 cm in length×23 cm in width×8 cm in depth, upland soil was filled, and seeds of soybean (GLXMA), corn (ZEAMX), Ipomoea lacunosa L. (IPOLA) and velvetleaf (ABUTH) were sown and covered with soil. A wettable powder prepared in accordance with Formulation Example 1 was weighed so that the active ingredients became the prescribed amounts, diluted with water and uniformly applied to the soil surface by means of a small size spray at a rate of 500 liters per 1 hectare. Thereafter, cultivation was carried out in a greenhouse, and on the 28th day after the treatment, the herbicidal effects and phytotoxicity were examined in accordance with the standards as identified in Table 15.
# (§2) The test on herbicidal effects and phytotoxicity against wheat (TRZAW), common chickweed (STEME) and Persian speedwell (VERPE) was carried out in the same manner as the above Test Example 1.
# [2] = system: common lambsquater (CHEAL); test: Test 3 on herbicidal effects against weeds and phytotoxicity by upland soil treatment; type: in vivo, Chenopodium album; details: 28th day
# From the text: as §1
# (§3) The test on herbicidal effects and phytotoxicity against corn (ZEAMX), barnyardgrass (ECHCG), common chickweed (STEME) and common lambsquater (CHEAL) was carried out in the same manner as the above Test Example 1.
# [3] = system: common chickweed (STEME); test: as above; type: in vivo, Stellaria media; details: 28th day
# From the text: as §1, §3
# [4] = system: common chickweed (STEME); test: Test 4 on herbicidal effects against weeds and phytotoxicity by upland soil treatment; type: in vivo, Stellaria media; details: 28th day
# From the text: as §1
# (§4) The test on herbicidal effects and phytotoxicity against wheat (TRZAW), italian ryegrass (LOLMU), common chickweed (STEME) and common lambsquater (CHEAL) was carried out in the same manner as the above Test Example 1.
# [5] = system: italian ryegrass (LOLMU); test: as above; type: in vivo; details: 28th day
# From the text: as §1, §4
# [6] = system: barnyardgrass (ECHCG); test: Test 3 on herbicidal effects against weeds and phytotoxicity by upland soil treatment; type: in vivo, Echinochloa crus-galli; details: 28th day
# From the text: as §1, §3
# [7] = system: common chickweed (STEME); test: Test 2 on herbicidal effects against weeds and phytotoxicity by upland soil treatment; type: in vivo, Stellaria media; details: 28th day
# From the text: as §1, §2
# [8] = system: corn (ZEAMX); test: Test on effects of reducing phytotoxicity against corn by upland soil treatment; type: in vivo; details: 21st day
# Description: In a plastic pot of 11 cm in length×11 cm in width×11 cm in depth, upland soil was filled, and seeds of corn (ZEAMX) were sown and covered with soil. A wettable powder prepared in accordance with Formulation Example 1 was weighed so that the active ingredients would be the prescribed amounts, diluted with water and uniformly applied to the soil surface by means of a small size spray at a rate of 500 liter per 1 hectare. Then, cultivation was carried out in a greenhouse, and on the 21st day after the treatment, the phytotoxicity against corn was examined in accordance with the standards as identified in Table 15.
# [9] = system: soybean (GLXMA); test: Test on herbicidal effects against weeds and phytotoxicity by foliage treatment in upland field; type: in vivo; details: 21st day
# Description: (§5) In a plastic pot of 11 cm in length×11 cm in width×11 cm in depth, the upland soil was filled, and seeds of corn (ZEAMX), soybean (GLXMA), greenfoxtail (SETVI), shattercane (SORVU), redroot pigweed (AMARE), Ipomoea lacunosa L. (IPOLA) and velvetleaf (ABUTH) were sown and covered with soil.
# (§6) Then, cultivation was carried out in a greenhouse for 10 days. Then, a wettable powder prepared in accordance with Formulation Example 1 was weighed so that active ingredients would be the prescribed amounts, […] spray at a rate of 500 liter per 1 hectare. Thereafter, cultivation was carried out in a greenhouse, and on the 21st day after the treatment, the herbicidal effects and phytotoxicity were examined in accordance with the standards as identified in Table 15.
# [10] = system: corn (ZEAMX); test: as above; type: in vivo; details: 21st day
# Description: as §5, §6
# [11] = system: soybean (GLXMA); test: Test 1 on herbicidal effects against weeds and phytotoxicity by upland soil treatment; type: in vivo; details: 28th day
# Description: (§7) In a plastic pot of 14 cm in length×23 cm in width×8 cm in depth, upland soil was filled, and seeds of soybean (GLXMA), corn (ZEAMX), Ipomoea lacunosa L. (IPOLA) and velvetleaf (ABUTH) were sown and covered with soil. […] Thereafter, cultivation was carried out in a greenhouse, and on the 28th day after the treatment, the herbicidal effects and phytotoxicity were examined in accordance with the standards as identified in Table 15.
# [12] = system: velvetleaf (ABUTH); test: as above; type: in vivo, Abutilon theophrasti; details: 400 gai/ha, 28th day
# From the text: as §1
# [13] = system: Ipomoea lacunosa L. (IPOLA); test: as above; type: in vivo; details: 400 gai/ha, 28th day
# From the text: as §1
# [14] = system: corn (ZEAMX); test: as above; type: in vivo; details: 28th day
# Description: as §7
# [15] = system: wheat (TRZAW); test: Test 2 on herbicidal effects against weeds and phytotoxicity by upland soil treatment; type: in vivo; details: 28th day
# From the text: as §1, §2
# [16] = system: wheat (TRZAW); test: Test 4 on herbicidal effects against weeds and phytotoxicity by upland soil treatment; type: in vivo; details: 1000 gai/ha, 28th day
# From the text: as §1, §4
structure (smiles),measurement,setting,value
"Cn1nc(C(F)(F)F)c(CS(=O)(=O)C2=NOC(C)(C)C2)c1OC(F)F [3-0054, 3-[(5-difluoromethoxy-1-methyl-3-trifluoromethylpyrazol-4-yl)methylsulfonyl]-4,5-dihydro-5,5-dimethylisoxazole]",herbicidal effect VERPE,[1]; 18.8 gai/ha,7 (Herbicidal effect or phytotoxicity of at least 70% and less than 80%)
same,herbicidal effect CHEAL,[2]; 62.5 gai/ha,4 (Herbicidal effect or phytotoxicity of at least 40% and less than 50%)
same,herbicidal effect STEME,[3]; 62.5 gai/ha,5 (Herbicidal effect or phytotoxicity of at least 50% and less than 60%)
same,herbicidal effect STEME,[4]; 50 gai/ha,4 (Herbicidal effect or phytotoxicity of at least 40% and less than 50%)
same,herbicidal effect LOLMU,[5]; 50 gai/ha,8 (Herbicidal effect or phytotoxicity of at least 80% and less than 90%)
same,herbicidal effect ECHCG,[6]; 62.5 gai/ha,10 (Herbicidal effect or phytotoxicity of 100%)
same,herbicidal effect STEME,[7]; 18.8 gai/ha,5 (Herbicidal effect or phytotoxicity of at least 50% and less than 60%)
CCNc1nc(Cl)nc(NC(C)C)n1 [Atrazine],phytotoxicity against corn ZEAMX,[8]; 2500 gai/ha,0 (Herbicidal effect or phytotoxicity of at least 0% and less than 10%)
CC1COc2ccccc2N1C(=O)C(Cl)Cl (stereo not shown) [Benoxacor],phytotoxicity against corn ZEAMX,[8]; 50 gai/ha,0 (Herbicidal effect or phytotoxicity of at least 0% and less than 10%)
CC(C)N1C(=O)c2ccccc2NS1(=O)=O [Bentazone],phytotoxicity GLXMA,[9]; 400 gai/ha,0 (Herbicidal effect or phytotoxicity of at least 0% and less than 10%)
same,phytotoxicity ZEAMX,[10]; 400 gai/ha,0 (Herbicidal effect or phytotoxicity of at least 0% and less than 10%)
C[C@H](NC(=O)[C@H](C)NC(=O)[C@@H](N)CCP(C)(=O)O)C(=O)O [Bilanafos],phytotoxicity GLXMA,[9]; 1000 gai/ha,9 (Herbicidal effect or phytotoxicity of at least 90% and less than 100%)
same,phytotoxicity ZEAMX,[10]; 1000 gai/ha,9 (Herbicidal effect or phytotoxicity of at least 90% and less than 100%)
COc1cc(OC)nc(Oc2cccc(Oc3nc(OC)cc(OC)n3)c2C(=O)O)n1 [Bispyribac-sodium],phytotoxicity GLXMA,[9]; 12.5 gai/ha,9 (Herbicidal effect or phytotoxicity of at least 90% and less than 100%)
same,phytotoxicity ZEAMX,[10]; 12.5 gai/ha,0 (Herbicidal effect or phytotoxicity of at least 0% and less than 10%)
CCOC(=O)c1ccccc1S(=O)(=O)NC(=O)Nc1nc(Cl)cc(OC)n1 [Chlorimuron-ethyl],phytotoxicity GLXMA,[9]; 6.3 gai/ha,0 (Herbicidal effect or phytotoxicity of at least 0% and less than 10%)
same,phytotoxicity ZEAMX,[10]; 6.3 gai/ha,4 (Herbicidal effect or phytotoxicity of at least 40% and less than 50%)
CC1(C)CON(Cc2ccccc2Cl)C1=O [Clomazone],phytotoxicity GLXMA,[11]; 200 gai/ha,0 (Herbicidal effect or phytotoxicity of at least 0% and less than 10%)
COC[C@H](C)N(C(=O)CCl)c1c(C)csc1C [Dimethenamid-P],herbicidal effect ABUTH,[12],7 (Herbicidal effect or phytotoxicity of at least 70% and less than 80%)
same,herbicidal effect IPOLA,[13],5 (Herbicidal effect or phytotoxicity of at least 50% and less than 60%)
CN(C)C(=O)Nc1ccc(Cl)c(Cl)c1 [Diuron],phytotoxicity GLXMA,[11]; 800 gai/ha,8 (Herbicidal effect or phytotoxicity of at least 80% and less than 90%)
same,phytotoxicity ZEAMX,[14]; 800 gai/ha,8 (Herbicidal effect or phytotoxicity of at least 80% and less than 90%)
COC(=O)CSc1cc(/N=c2\sc(=O)n3n2CCCC3)c(F)cc1Cl [Fluthiacet-methyl],phytotoxicity GLXMA,[9]; 10 gai/ha,0 (Herbicidal effect or phytotoxicity of at least 0% and less than 10%)
same,phytotoxicity ZEAMX,[10]; 10 gai/ha,0 (Herbicidal effect or phytotoxicity of at least 0% and less than 10%)
CC(C)c1ccc(NC(=O)N(C)C)cc1 [Isoproturon],herbicidal effect VERPE,[1]; 375 gai/ha,5 (Herbicidal effect or phytotoxicity of at least 50% and less than 60%)
same,herbicidal effect STEME,[7]; 375 gai/ha,6 (Herbicidal effect or phytotoxicity of at least 60% and less than 70%)
CNc1cnn(-c2cccc(C(F)(F)F)c2)c(=O)c1Cl [Norflurazon],phytotoxicity GLXMA,[11]; 400 gai/ha,1 (Herbicidal effect or phytotoxicity of at least 10% and less than 20%)
same,phytotoxicity ZEAMX,[14]; 400 gai/ha,9 (Herbicidal effect or phytotoxicity of at least 90% and less than 100%)
C[n+]1ccc(-c2cc[n+](C)cc2)cc1 [Paraquat],phytotoxicity GLXMA,[9]; 500 gai/ha,10 (Herbicidal effect or phytotoxicity of 100%)
same,phytotoxicity ZEAMX,[10]; 500 gai/ha,6 (Herbicidal effect or phytotoxicity of at least 60% and less than 70%)
O=C(Nc1ccc(F)cc1)c1cccc(Oc2cccc(C(F)(F)F)c2)n1 [Picolinafen],herbicidal effect VERPE,[1]; 16 gai/ha,6 (Herbicidal effect or phytotoxicity of at least 60% and less than 70%)
same,phytotoxicity TRZAW,[15]; 16 gai/ha,0 (Herbicidal effect or phytotoxicity of at least 0% and less than 10%)
same,herbicidal effect STEME,[7]; 16 gai/ha,5 (Herbicidal effect or phytotoxicity of at least 50% and less than 60%)
CCCN(CCC)C(=O)SCc1ccccc1 [Prosulfocarb],herbicidal effect CHEAL,[2]; 1600 gai/ha,5 (Herbicidal effect or phytotoxicity of at least 50% and less than 60%)
same,herbicidal effect STEME,[3]; 1600 gai/ha,5 (Herbicidal effect or phytotoxicity of at least 50% and less than 60%)
same,herbicidal effect ECHCG,[6]; 1600 gai/ha,2 (Herbicidal effect or phytotoxicity of at least 20% and less than 30%)
CCOC(=O)C(C)Oc1ccc(Oc2cnc3cc(Cl)ccc3n2)cc1 (stereo not shown) [Quizalofop-ethyl],phytotoxicity GLXMA,[9]; 25 gai/ha,0 (Herbicidal effect or phytotoxicity of at least 0% and less than 10%)
same,phytotoxicity ZEAMX,[10]; 25 gai/ha,10 (Herbicidal effect or phytotoxicity of 100%)
CCC/C(=N\OCC)C1=C(O)CC(CC(C)SCC)CC1=O (stereo not shown) [Sethoxydim],phytotoxicity GLXMA,[9]; 100 gai/ha,0 (Herbicidal effect or phytotoxicity of at least 0% and less than 10%)
same,phytotoxicity ZEAMX,[10]; 100 gai/ha,9 (Herbicidal effect or phytotoxicity of at least 90% and less than 100%)
CS(=O)(=O)c1ccc(C(=O)C2C(=O)CCCC2=O)c(Cl)c1 [Sulcotrione],phytotoxicity GLXMA,[9]; 25 gai/ha,6 (Herbicidal effect or phytotoxicity of at least 60% and less than 70%)
same,phytotoxicity ZEAMX,[10]; 25 gai/ha,0 (Herbicidal effect or phytotoxicity of at least 0% and less than 10%)
same,phytotoxicity against corn ZEAMX,[8]; 1000 gai/ha,1 (Herbicidal effect or phytotoxicity of at least 10% and less than 20%)
CC(C)N(C(=O)SCC(Cl)=C(Cl)Cl)C(C)C [Triallate],herbicidal effect STEME,[4]; 1000 gai/ha,2 (Herbicidal effect or phytotoxicity of at least 20% and less than 30%)
same,phytotoxicity TRZAW,[16],0 (Herbicidal effect or phytotoxicity of at least 0% and less than 10%)
same,herbicidal effect LOLMU,[5]; 1000 gai/ha,2 (Herbicidal effect or phytotoxicity of at least 20% and less than 30%)
CCCN(CCC)c1c([N+](=O)[O-])cc(C(F)(F)F)cc1[N+](=O)[O-] [Trifluralin],herbicidal effect VERPE,[1]; 250 gai/ha,7 (Herbicidal effect or phytotoxicity of at least 70% and less than 80%)
same,phytotoxicity TRZAW,[15]; 250 gai/ha,0 (Herbicidal effect or phytotoxicity of at least 0% and less than 10%)
same,herbicidal effect STEME,[7]; 250 gai/ha,10 (Herbicidal effect or phytotoxicity of 100%)
